Reference: patent publication US6395885B1, “Use of lithium salts of anionic dyes to enhance their light-fastness” (Avecia Limited, priority 1998, dated 2002)

Test: Light-fastness of ink jet prints on Xerox Acid paper faded in a weatherometer (colour difference ΔE)
Format: physicochemical
Protocol: Each ink was prepared by dissolving the Dye shown in the second column of Table 1 (0.35 g) in water (8.45 g) by adding ammonia and adjusting the pH to 9.5. 2-pyrrolidone (0.5 g), thiodiglycol (0.5 g) and Surfynol 465 (0.2 g) were then added and the mixture was stirred at ambient temperature. The resulting solution was filtered through a 0.45 μm filter to give the ink.
Each ink shown in Table 1 was loaded into a HP 560 ink jet printer and was applied to Xerox Acid paper using the ink jet printer. When the resulting prints had dried a portion of the print was mounted, half covered, and faded in an Atlas Ci35a weatherometer.
The light-fastness of the prints was assessed by measuring the colour difference (ΔE) between the faded and unfaded portions of the print using an X-Rite 939 spectrodensitometer. The time shown in the column marked ΔE in Table 1 refers to the number of hours the print was faded for in the weatherometer.
A low ΔE value indicates a small colour change after fading in the weatherometer and therefore a high light-fastness.
The light-fastness of Dyes (A) and (B) and the individual sodium and lithium salts thereof were measured as described in Example 1; namely by ink jet printing an ink containing the each dye onto Xerox Acid paper and fading the prints using an Xrite Weatherometer.

ΔE (50 hours) (ink with 3.5 parts dye printed on Xerox Acid paper, faded 50 hours in Atlas Ci35a weatherometer, low ΔE = high light-fastness): 10.77
Light-Fastness (after 50 hours) (measured as in Example 1 (ΔE), ink jet print on Xerox Acid paper, 50 hours of fading): 11
SMILES: COc1cc(N=Nc2cccc(S(=O)(=O)O)c2)ccc1NC(=O)Nc1ccc(N=Nc2cccc(S(=O)(=O)O)c2)cc1OC [Comparative (3), C.I. Direct Yellow 132]
